{
  "source": "patent US4117108A",
  "about": "“Oral hygiene” (Noxell Corporation, priority 1976, dated 1978)",
  "key": {"[1]": {"test_system": "pellicle and plaque growth on extracted human teeth and plastic strip", "assay": "Inhibition of plaque/pellicle formation on extracted human teeth (mounted on polymethylmethacrylate strip) with composition added to the media (Example 20 procedure)", "set-up": "species or system human saliva / human teeth", "conditions": "for pellicle and plaque formation/inhibition on the teeth: 0.1 ml of 1% by weight in distilled water added to about 200 ml media, second 24 h at about 37° C", "method": "A set of three extracted human teeth without the roots is mounted on a polymethylmethacrylate plastic strip of about 1 inch × 3 inches. A drop of human saliva is applied to each tooth and allowed to dry. The set of teeth is then placed in a petri dish and covered with about 200 ml of an aqueous solution of about 2% trypticase and about 4% sucrose. The dish is then inoculated with an additional 1 ml of human saliva and then incubated at about 37° C for about 24 hours.\nNext, the set of teeth is removed from the media, rinsed, and then dipped into a 0.5% aqueous solution of FD & C RED No. 3 to visually disclose the plaque.\nThe teeth are then brushed with water using an electric toothbrush fitted with a soft nylon brush until all of the red disclosed plaque and/or pellicle is removed.\nThe teeth are then swabbed with human saliva, placed in a petri dish covered with about 200 ml of the trypticase-sucrose media and about 0.1 ml of a composition containing 1% by weight DL-N-carboxymethylmethyl-N,N-dimethyl-N-(3-palmitamidopropyl) ammonium betaine and the remainder being distilled water. The contents of the dish are then inoculated with an additional 1 ml of saliva and incubated for about 24 hours at about 37° C. At the end of the 24 hours, the set of teeth is removed from the media, dried, and dipped into a 0.5% FE & C RED No. 3 solution for about 60 seconds to visually disclose the presence of pellicle and plaque and is then rinsed under tap water."}, "[2]": {"test_system": "pellicle and plaque growth on extracted human teeth and plastic strip", "assay": "Inhibition of plaque/pellicle formation on extracted human teeth (mounted on polymethylmethacrylate strip) with composition added to the media (Example 20 procedure)", "set-up": "species or system human saliva / human teeth", "conditions": "0.1 ml of 1% by weight in propylene glycol; second 24 h"}, "[3]": {"test_system": "plaque and pellicle growth on extracted human teeth", "assay": "Inhibition of plaque/pellicle redeposition on extracted human teeth brushed with the composition, then incubated with saliva (Example 1A procedure)", "method": "A set of three extracted human teeth without the roots is mounted on a plastic strip of about 1 inch × 3 inches. The teeth are then swabbed with human saliva using a sterile Dacron swab and allowed to dry for about 15 minutes. The strip is then placed in a petri dish and covered with about 200 ml of an aqueous solution of about 2% trypticase and about 4% sucrose. Each dish is then inoculated with an additional 1 ml of human saliva and then incubated at about 37° C for about 24 hours.\nNext, the set of teeth is removed from the media, dried, and then dipped into a 0.5% aqueous solution of FD & C RED No. 3 to visually disclose the plaque. The strip is then rinsed under tap water.\nThe teeth are then brushed with an electric toothbrush […], […], until all of the red disclosed plaque is removed and are then rinsed.\nThe teeth are then again swabbed with human saliva, placed in a petri dish covered with the trypticase-sucrose media, which is then inoculated with an additional 1 ml of saliva and incubated for about 24 hours at about 37° C. At the end of the 24 hours, the set of teeth is removed from the media, dried, and dipped into a 0.5% FD & C RED No. 3 solution for about 60 seconds to visually disclose the presence of plaque and is then rinsed under tap water.\nAll of the above examples employed new sets of teeth or plastic strips and new brushes for the brushing, respectively. Any NaCl present in the composition is due to its presence in the available compositions of the fatty acid amido compounds."}, "[4]": {"test_system": "plaque and/or pellicle growth on polymethyl methacrylate strips", "assay": "Inhibition of plaque/pellicle growth on polymethyl methacrylate strips brushed with the composition (Example 16 procedure)", "set-up": "species or system human saliva", "conditions": "second 24 h"}, "Acute oral LD50 study": {"assay": "Acute oral LD50 study", "conditions": "in vivo, rat, palmitic amido betaine purified according to Example 10", "method": "An acute oral LD50 study was done on rats for Schercotaine PAB in mature albino rats.\nPalmitic amido betaine purified according to Example 10 is also tested according to the above procedure."}, "[5]": {"test_system": "plaque and pellicle formation", "assay": "Observed plaque/pellicle retardation (general statements, test not specified at the place)", "conditions": "for plaque inhibition activity: various compositions with about 5% betaine, including (isostearic) 24% glycerin, 1% propylene glycol, 0.75% carboxymethyl cellulose, 69.25% water"}},
  "data": [
    {"compound": "CCCCCCCC/C=C\\CCCCCCCC(=O)NCCC[N+](C)(C)C(C)C(=O)[O-]", "note": "(racemic) [DL-N-carboxymethylmethyl-N,N-dimethyl-N-(3-oleylamidopropyl) ammonium betaine]", "values": [
      {"measurement": "pellicle and plaque formation/inhibition on the teeth", "setting": "[1]", "result": "inhibits plaque and pellicle formation on the teeth"}
    ]},
    {"compound": "CCCCCCCCCCCCCCCC(=O)NCCC[N+](C)(C)C(C)C(=O)[O-]", "note": "(racemic) [DL-N-carboxymethylmethyl-N,N-dimethyl-N-(3-palmitamidopropyl) ammonium betaine]", "values": [
      {"measurement": "pellicle and plaque formation/inhibition on the teeth", "setting": "[1]", "result": "No pellicle and plaque growth are observed on the teeth"}
    ]},
    {"compound": "CCCCCCCCCCCCCCCCCC(=O)NCCC[N+](C)(C)C(C)C(=O)[O-]", "note": "(racemic) [DL-N-carboxymethylmethyl-N,N-dimethyl-N-(3-stearamidopropyl) ammonium betaine]", "values": [
      {"measurement": "pellicle and plaque formation/inhibition on the teeth", "setting": "[1]", "result": "slight activity against plaque and pellicle formation on the teeth"}
    ]},
    {"compound": "CCCCCCCC/C=C\\CCCCCCCC(=O)NCCC[N+](C)(C)CCS(=O)(=O)[O-]", "note": "[2-[N,N-dimethyl-N-(3-oleylamidopropyl)-amino] ethanesulfobetaine]", "values": [
      {"measurement": "activity against plaque and pellicle formation on the teeth", "setting": "[2]", "result": "exhibits activity against plaque and pellicle formation on the teeth"},
      {"measurement": "plaque growth on teeth and plastic", "setting": "[2]", "result": "Very slight plaque growth is observed on teeth and plastic"}
    ]},
    {"compound": "CCCCCCCCCCCCCCCC(=O)NCCC[N+](C)(C)CCS(=O)(=O)[O-]", "note": "[2-[N,N-dimethyl-N-(3-palmitamidopropyl)-amino] ethanesulfobetaine]", "values": [
      {"measurement": "activity against plaque and pellicle formation on the teeth", "setting": "[2]", "result": "exhibits activity against plaque and pellicle formation on the teeth"},
      {"measurement": "plaque growth on teeth and plastic", "setting": "[2]", "result": "Only slight plaque growth is observed on the teeth and plastic"}
    ]},
    {"compound": "CCCCCCCC/C=C\\CCCCCCCC(=O)NCCC[N+](C)(C)CCC(=O)[O-]", "note": "[N-carboxyethyl-N,N-dimethyl-N-(3-oleylamidopropyl) ammonium betaine]", "values": [
      {"measurement": "pellicle and plaque formation/inhibition on the teeth", "setting": "[1]", "result": "inhibits plaque and pellicle formation on the teeth"}
    ]},
    {"compound": "CCCCCCCCCCCCCCCC(=O)NCCC[N+](C)(C)CCC(=O)[O-]", "note": "[N-carboxyethyl-N,N-dimethyl-N-(3-palmitamidopropyl) ammonium betaine]", "values": [
      {"measurement": "pellicle and plaque formation/inhibition on the teeth", "setting": "[1]", "result": "complete inhibition of plaque and pellicle formation on the teeth"},
      {"measurement": "plaque and/or pellicle on the plastic strip", "setting": "[1]; 0.1 ml of 1% by weight in distilled water, second 24 h", "result": "very slight plaque and/or pellicle on the plastic strip"}
    ]},
    {"compound": "CCCCCCCCCCCCCCCCCC(=O)NCCC[N+](C)(C)CCC(=O)[O-]", "note": "[N-carboxyethyl-N,N-dimethyl-N-(3-stearamidopropyl) ammonium betaine]", "values": [
      {"measurement": "pellicle and plaque formation/inhibition on the teeth", "setting": "[1]", "result": "inhibits plaque and pellicle formation on the teeth"}
    ]},
    {"compound": "CCCCCCCC/C=C\\CCCCCCCC(=O)NCCC[N+](C)(C)CC(=O)[O-]", "note": "[oleic amido betaine]", "values": [
      {"measurement": "inhibition of pellicle and plaque growth", "setting": "[3]; Example 7: about 25% betaine, up to 5% NaCl, water (Schercotaine OAB), second 24 h", "result": "almost complete inhibition of pellicle and plaque growth on the teeth"}
    ]},
    {"compound": "CCCCCCCCCCCCCCCC(=O)NCCC[N+](C)(C)CC(=O)[O-]", "note": "[palmitic amido betaine]", "values": [
      {"measurement": "plaque growth on teeth / inhibition of plaque redeposition", "setting": "[3]; Example 1A: about 25% palmitic amido betaine, 2-5% NaCl, remainder water (Schercotaine PAB), brushed and rinsed, second 24 h at 37° C", "result": "effectively inhibits the redeposition of dental plaque on the teeth"},
      {"measurement": "pellicle and plaque inhibition", "setting": "[3]; Example 2: about 20% betaine, 10% ethyl alcohol, 70% water, second 24 h", "result": "provides pellicle and plaque inhibition although not as great as the preparation employed in Example 1A"},
      {"measurement": "prevention of pellicle and plaque formation", "setting": "[3]; Example 4: about 10% betaine, 8% silica gel (Syloid 244), 36.4% sorbitol, up to 5% NaCl, water, second 24 h", "result": "complete prevention of pellicle and plaque formation on the teeth"},
      {"measurement": "pellicle or plaque formation", "setting": "[3]; Example 5: about 2.5% betaine, 10% ethyl alcohol, up to 5% NaCl, water, brushed and dipped, not rinsed, second 24 h", "result": "no pellicle or plaque formation on the set of teeth"},
      {"measurement": "pellicle and plaque inhibition", "setting": "[3]; Example 8: about 10 parts betaine, 35.7 sorbitol, 8 silica QUSO G-30, 1 propylene glycol, 45 water, second 24 h", "result": "complete pellicle and plaque inhibition on the teeth"},
      {"measurement": "inhibition of pellicle and plaque growth", "setting": "[3]; Example 9: about 10 parts betaine, 35.7 sorbitol, 8 silica QUSO G-32, 1 propylene glycol, 45 water, second 24 h", "result": "complete inhibition of pellicle and plaque growth"},
      {"measurement": "inhibition of plaque and pellicle growth", "setting": "[3]; Example 10: about 10% purified betaine, 90% water, 24 h", "result": "complete inhibition of plaque and pellicle growth on the teeth"},
      {"measurement": "inhibition of plaque and pellicle growth", "setting": "[3]; Example 11: about 5% purified betaine, 95% water, 24 h", "result": "partial inhibition of plaque and pellicle growth on the teeth"},
      {"measurement": "inhibition of pellicle and plaque growth", "setting": "[3]; Example 12: about 30 parts betaine in paste with sorbitol, glycerin, carboxymethyl cellulose, Syloid 244, hydrated alumina, pH about 6.4, second 24 h", "result": "complete inhibition of pellicle and plaque growth on the teeth"},
      {"measurement": "plaque and pellicle inhibition", "setting": "[3]; Example 13: about 25 parts purified betaine in paste with sorbitol, carboxymethyl cellulose, hydrated alumina, Syloid 244, glycerin, second 24 h", "result": "complete plaque and pellicle inhibition on the teeth"},
      {"measurement": "inhibition of plaque and pellicle growth", "setting": "[3]; Example 14: about 30 parts purified betaine in paste with Pluronic F-68, sorbitol, carboxymethyl cellulose, hydrated alumina, Syloid 244, second 24 h", "result": "complete inhibition of plaque and pellicle growth on the teeth"},
      {"measurement": "prevention of plaque and/or pellicle growth", "setting": "[4]; Example 17B: Denta Fresh ingredients with Tegobetaine C replaced by 15% palmitic amido betaine", "result": "does not prevent plaque and/or pellicle growth"},
      {"measurement": "LD50", "setting": "Acute oral LD50 study", "result": 2400, "unit": "mg/kg"},
      {"measurement": "retardation of plaque formation", "setting": "[5]; about 2.5% betaine, about 10% silica, about 56% sorbitol, up to 5% NaCl, water, with rinsing", "result": "did not retard plaque formation"},
      {"measurement": "retardation of plaque formation", "setting": "[5]; about 2.5% or less betaine, about 10% ethyl alcohol, up to about 5% NaCl, water, with rinsing", "result": "did not retard plaque formation"},
      {"measurement": "retardation of plaque formation", "setting": "[5]; about 5% betaine, about 8% silica, about 50.5% sorbitol, about 36.5% water", "result": "marginally effective in that sometimes the composition exhibited retardation of plaque while other times the composition did not"},
      {"measurement": "retardation of plaque formation", "setting": "[5]; about 5% betaine, about 95% water", "result": "retarded plaque formation"},
      {"measurement": "prevention of plaque formation", "setting": "[5]; same compositions (2.5% or less with ethyl alcohol; 2.5% with silica/sorbitol), no rinsing after treatment", "result": "prevented the formation of plaque"}
    ]},
    {"compound": "CCCCCCCCCCCCCCCCCC(=O)NCCC[N+](C)(C)CC(=O)[O-]", "note": "[stearic amido betaine]", "values": [
      {"measurement": "plaque inhibition activity", "setting": "[5]", "result": "did not exhibit plaque inhibition activity"}
    ]},
    {"compound": "isostearic amido betaine", "values": [
      {"measurement": "plaque and pellicle inhibition", "setting": "[3]; Example 3: about 35% betaine, 2-5% NaCl, remainder water (Schercotaine IAB), second 24 h", "result": "good plaque and pellicle inhibition"},
      {"measurement": "pellicle and plaque inhibition", "setting": "[3]; Example 6: about 5% betaine, 24% glycerin, 0.75% hydroxyethyl cellulose, 1% propylene glycol, up to 5% NaCl, water, second 24 h", "result": "moderate pellicle and plaque inhibition"},
      {"measurement": "plaque and pellicle on the teeth", "setting": "[3]; Example 15: about 14% betaine, 86% water, second 24 h", "result": "no plaque and pellicle are present on the teeth"},
      {"measurement": "prevention of plaque and/or pellicle growth", "setting": "[4]; Example 17C: Denta Fresh ingredients with Tegobetaine C replaced by 15% isostearic amido betaine", "result": "does not prevent plaque and/or pellicle growth"},
      {"measurement": "plaque inhibition", "setting": "[5]; about 5% betaine, similar composition with about 0.75% hydroxyethyl cellulose in place of carboxymethyl cellulose", "result": "retarded plaque formation and exhibited moderate plaque inhibition"},
      {"measurement": "plaque inhibition activity", "setting": "[5]", "result": "did not exhibit plaque inhibition activity"}
    ]}
  ]
}
